Where two headings read alike, the source gives them in different places. Positions of bridges follow the written chain, without caps; N, C: chain ends. Non-standard residues stand in square brackets, D forms with d. Residues, ends and D or L forms follow the SMILES beside them. Chains are numbered I, II in the order given. *: point of attachment. NOTA = O=C(O)CN1CCN(CC(=O)O)CCN(CC(=O)*)CC1
Key:
[1] = In vivo radiometabolite analysis in plasma and urine; parameters: species or system mouse; settings: wild-type mice
Procedure: Plasma samples were obtained by decapitation 15 min p.i. (n = 2). Blood was collected in EDTA tubes and centrifuged for 5 min at 3000× g. Subsequently, plasma was removed and diluted (1:2) with acetonitrile to precipitate all plasma proteins. After centrifugation (5 min at 3000× g), the supernatant was diluted (1:10) with water and filtered (0.22 µm) before injection on radioHPLC. Urine samples were collected 75 min p.i. (n = 3) by gently pressing on the bladder. The collected urine was filtered (0.22 µm) before injection on radioHPLC. Due to low radioactivity concentration in the plasma samples, 30 fractions of 30 s per plasma sample were collected. Radioactivity in the fractions was determined in an automated gamma counter.

[2] = PET/CT imaging in wild-type mice; format: in vivo, mouse; settings: dynamic PET 0–60 min p.i., AMD3100 5 mg/kg
Procedure: Dynamic PET images were acquired for 60 min immediately after intravenous injection using a beta-cube PET scanner (Molecubes, Gent, Belgium). The mice were kept under gas anesthesia during the entire procedure (2.5% isoflurane in O2 at 1 L/min flow rate), with temperature and respiration monitored throughout. After PET scanning, a CT image was acquired for anatomic coregistration with an X-cube CT scanner (Molecubes, Gent, Belgium), using the ‘general’ protocol with the following parameters: 50 kVp, 480 exposures, 85 ms/projection, 100 μA tube current, rotation time 60 s. After scanning, mice were sacrificed 75 min p.i. and a whole-body biodistribution study was performed.
PET data were histogrammed into 14 frames (4 × 15 s, 4 × 1 min, 1 × 5 min, 5 × 10 min) and reconstructed into a 192 × 192 image matrix with 0.4 mm voxels using 30 iterations the native MLEM algorithm with corrections for randoms, scatter, attenuation and decay. CT Data were reconstructed using a regularized statistical (iterative) image reconstruction algorithm using non-negative least squares, using an isotropic 200 μm voxel size and scaled to Hounsfield Units (HUs) after calibration against a standard air/water phantom. […] Radiotracer uptake at 60 min, expressed as SUVmean, was the outcome measure.

[3] = Ex vivo biodistribution in U87.hCXCR4 tumor-bearing mice; parameters: species or system mouse; settings: female, SCID (CB17.Cg-Prkdc<scid>Lyst<bg-J>/Crl), mouse, iv, total radioactivity, 75 min p.i., mean ± SD; for tissue to tissue ratio at 1.25 h: SUV ratio

In the case of `CC(C)C[C@@H](N)C(=O)NCC(=O)N[C@H](C)C(=O)N[C@H](CO)C(=O)N[C@H](Cc1c[nH]c2ccccc12)C(=O)N[C@H](Cc1c[nH]cn1)C(=O)N[C@H](CCCNC(=N)N)C(=O)N1CCC[C@@H]1C(=O)N[C@H](CC(=O)O)C(=O)N[C@H](CCCCNC(=O)CN1CCN(CC(=O)O)CCN(CC(=O)O)CC1)C(=O)NCCCC[C@@H](NC(=O)[C@H]1CCCN1C(=O)[C@@H](CC(C)C)NC(=O)[C@H]1CCCN1C(=O)[C@@H](CCCNC(=N)N)NC(=O)[C@@H](CCCCN)NC(=O)[C@@H](CCC(N)=O)NC(=O)[C@@H](Cc1ccc(O)cc1)NC(=O)CNC(=O)[C@@H](CC(C)C)NC(=O)[C@@H](CS)NC(=O)[C@@H](CS)NC(=O)[C@@H](CCCCN)NC(=O)[C@@H](CC(=O)O)NC(=O)[C@H]1CCCN1C(=O)[C@@H](CCCNC(=N)N)NC(=O)[C@@H](Cc1c[nH]cn1)NC(=O)[C@@H](Cc1c[nH]c2ccccc12)NC(=O)[C@@H](CO)NC(=O)[C@@H](C)NC(=O)CNC(=O)[C@H](N)CC(C)C)C(=O)O` [[^18F]AlF-NOTA-DV1-k-(DV3)] (I: H-[dL]G[dA][dS][dW][dH][dR][dP][dD][dK][dC][dC][dL]G[dY][dQ][dK][dR][dP][dL][dP][dK]-OH / II: H-[dL]G[dA][dS][dW][dH][dR][dP][dD][dK](NOTA); amide I:22-II:C), the “parent (intact) radioligand in plasma” value ([1]; i.v., plasma 15 min p.i., radioHPLC fractions, gamma counter, n = 2) is reported as 86 ± 0.1%, the “parent (intact) radioligand in urine” value ([1]; i.v., urine 75 min p.i., radioHPLC, n = 3) is reported as 37 ± 2% and the “polar metabolites in plasma” value ([1]; plasma 15 min p.i., n = 2) is reported as 14 ± 0.1%. For the same compound, the “polar metabolites in urine” value ([1]; urine 75 min p.i., n = 3) was 63 ± 2%, the “kidney uptake on co-injection of AMD3100” value [2] was “increased with a factor of two” and the “liver retention on co-injection of AMD3100” value [2] was “completely blocked”. The SUV at 1.25 h ([3]; blood, co-injected DV1-k-(DV3) 7 nmol, n = 3, read-out: blood uptake) was 0.4 ± 0.2 SUV, the SUV at 1.25 h ([3]; blood, co-injected DV1-k-(DV3) 14 nmol, n = 4, read-out: blood uptake) was 0.5 ± 0.3 SUV and the SUV at 1.25 h ([3]; blood, tracer alone (0 nmol), n = 4, read-out: blood uptake) was 0.1 ± 0.1 SUV. The SUV at 1.25 h ([3]; blood, with AMD3100 5 mg/kg (157 nmol), co-injected, co-injected AMD3100 5 mg/kg (157 nmol), n = 4, read-out: blood uptake) was 0.3 ± 0.2 SUV, the SUV at 1.25 h ([3]; bone, co-injected AMD3100 5 mg/kg (157 nmol), n = 4, read-out: bone uptake) was 0.1 ± 0.04 SUV and the SUV at 1.25 h ([3]; bone, co-injected DV1-k-(DV3) 7 nmol, n = 3, read-out: bone uptake) was 0.2 ± 0.04 SUV. It also gave an SUV at 1.25 h ([3]; bone, co-injected DV1-k-(DV3) 14 nmol, n = 4, read-out: bone uptake) of 0.3 ± 0.1 SUV, an SUV at 1.25 h ([3]; bone, co-injected DV1-k-(DV3) 24 nmol, n = 4, read-out: bone uptake) of 0.2 ± 0.04 SUV and an SUV at 1.25 h ([3]; bone, tracer alone (0 nmol), n = 4, read-out: bone uptake) of 0.4 ± 0.1 SUV. It also gave an SUV at 1.25 h ([3]; brain, co-injected AMD3100 5 mg/kg (157 nmol), n = 4, read-out: brain uptake) of 0.01 ± 0.004 SUV, an SUV at 1.25 h ([3]; brain, co-injected DV1-k-(DV3) 7 nmol, n = 3, read-out: brain uptake) of 0.02 ± 0.01 SUV and an SUV at 1.25 h ([3]; brain, co-injected DV1-k-(DV3) 14 nmol, n = 4, read-out: brain uptake) of 0.03 ± 0.01 SUV. For the same compound, the SUV at 1.25 h ([3]; brain, co-injected DV1-k-(DV3) 24 nmol, n = 4, read-out: brain uptake) was 0.02 ± 0.01 SUV, the SUV at 1.25 h ([3]; brain, tracer alone (0 nmol), n = 4, read-out: brain uptake) was 0.01 ± 0.001 SUV and the SUV at 1.25 h ([3]; heart, co-injected AMD3100 5 mg/kg (157 nmol), n = 4, read-out: heart uptake) was 0.1 ± 0.1 SUV. It also gave an SUV at 1.25 h ([3]; heart, co-injected DV1-k-(DV3) 7 nmol, n = 3, read-out: heart uptake) of 0.2 ± 0.1 SUV, an SUV at 1.25 h ([3]; heart, co-injected DV1-k-(DV3) 14 nmol, n = 4, read-out: heart uptake) of 0.3 ± 0.1 SUV and an SUV at 1.25 h ([3]; heart, co-injected DV1-k-(DV3) 24 nmol, n = 4, read-out: heart uptake) of 0.2 ± 0.1 SUV. It also gave an SUV at 1.25 h ([3]; heart, tracer alone (0 nmol), n = 4, read-out: heart uptake) of 0.1 ± 0.04 SUV, an SUV at 1.25 h ([3]; kidneys, co-injected AMD3100 5 mg/kg (157 nmol), n = 4, read-out: kidneys uptake) of 47.5 ± 3.1 SUV and an SUV at 1.25 h ([3]; kidneys, co-injected DV1-k-(DV3) 7 nmol, n = 3, read-out: kidneys uptake) of 39.2 ± 7.6 SUV. The SUV at 1.25 h ([3]; kidneys, co-injected DV1-k-(DV3) 14 nmol, n = 4, read-out: kidneys uptake) was 33.6 ± 12.4 SUV, the SUV at 1.25 h ([3]; kidneys, co-injected DV1-k-(DV3) 24 nmol, n = 4, read-out: kidneys uptake) was 36.1 ± 5.9 SUV and the SUV at 1.25 h ([3]; kidneys, tracer alone (0 nmol), n = 4, read-out: kidneys uptake) was 26.5 ± 6 SUV. For the same compound, the SUV at 1.25 h ([3]; liver, co-injected AMD3100 5 mg/kg (157 nmol), n = 4, read-out: liver uptake) was 0.9 ± 0.3 SUV, the SUV at 1.25 h ([3]; liver, tracer alone (0 nmol), n = 4, read-out: liver uptake) was 8.2 ± 1 SUV and the SUV at 1.25 h ([3]; liver, with unlabelled DV1-k-(DV3) 7 nmol, co-injected, co-injected DV1-k-(DV3) 7 nmol, n = 3, read-out: liver uptake) was 1.2 ± 0.1 SUV. The SUV at 1.25 h ([3]; liver, with unlabelled DV1-k-(DV3) 14 nmol, co-injected, co-injected DV1-k-(DV3) 14 nmol, n = 4, read-out: liver uptake) was 1.2 ± 0.4 SUV, the SUV at 1.25 h ([3]; liver, with unlabelled DV1-k-(DV3) 24 nmol, co-injected, co-injected DV1-k-(DV3) 24 nmol, n = 4, read-out: liver uptake) was 0.7 ± 0.1 SUV and the SUV at 1.25 h ([3]; lungs, co-injected AMD3100 5 mg/kg (157 nmol), n = 4, read-out: lungs uptake) was 0.5 ± 0.1 SUV. It also gave an SUV at 1.25 h ([3]; lungs, co-injected DV1-k-(DV3) 7 nmol, n = 3, read-out: lungs uptake) of 0.7 ± 0.2 SUV, an SUV at 1.25 h ([3]; lungs, co-injected DV1-k-(DV3) 14 nmol, n = 4, read-out: lungs uptake) of 0.9 ± 0.3 SUV and an SUV at 1.25 h ([3]; lungs, co-injected DV1-k-(DV3) 24 nmol, n = 4, read-out: lungs uptake) of 0.6 ± 0.2 SUV. The SUV at 1.25 h ([3]; lungs, tracer alone (0 nmol), n = 4, read-out: lungs uptake) was 0.6 ± 0.2 SUV, the SUV at 1.25 h ([3]; muscle, co-injected DV1-k-(DV3) 7 nmol, n = 3, read-out: muscle uptake) was 0.2 ± 0.1 SUV and the SUV at 1.25 h ([3]; muscle, co-injected DV1-k-(DV3) 14 nmol, n = 4, read-out: muscle uptake) was 0.2 ± 0.1 SUV. For the same compound, the SUV at 1.25 h ([3]; muscle, co-injected DV1-k-(DV3) 24 nmol, n = 4, read-out: muscle uptake) was 0.2 ± 0.1 SUV, the SUV at 1.25 h ([3]; muscle, tracer alone (0 nmol), n = 4, read-out: muscle uptake) was 0.05 ± 0.02 SUV and the SUV at 1.25 h ([3]; muscle, with AMD3100 5 mg/kg (157 nmol), co-injected, co-injected AMD3100 5 mg/kg (157 nmol), n = 4, read-out: muscle uptake) was 0.1 ± 0.1 SUV. It also gave an SUV at 1.25 h ([3]; pancreas, co-injected AMD3100 5 mg/kg (157 nmol), n = 4, read-out: pancreas uptake) of 0.1 ± 0.1 SUV, an SUV at 1.25 h ([3]; pancreas, co-injected DV1-k-(DV3) 7 nmol, n = 3, read-out: pancreas uptake) of 0.1 ± 0.04 SUV and an SUV at 1.25 h ([3]; pancreas, co-injected DV1-k-(DV3) 14 nmol, n = 4, read-out: pancreas uptake) of 0.2 ± 0.1 SUV. It also gave an SUV at 1.25 h ([3]; pancreas, co-injected DV1-k-(DV3) 24 nmol, n = 4, read-out: pancreas uptake) of 0.1 ± 0.03 SUV, an SUV at 1.25 h ([3]; pancreas, tracer alone (0 nmol), n = 4, read-out: pancreas uptake) of 0.06 ± 0.02 SUV and an SUV at 1.25 h ([3]; spleen, co-injected AMD3100 5 mg/kg (157 nmol), n = 4, read-out: spleen uptake) of 0.5 ± 0.1 SUV. The SUV at 1.25 h ([3]; spleen, co-injected DV1-k-(DV3) 7 nmol, n = 3, read-out: spleen uptake) was 0.5 ± 0.1 SUV, the SUV at 1.25 h ([3]; spleen, co-injected DV1-k-(DV3) 14 nmol, n = 4, read-out: spleen uptake) was 0.6 ± 0.2 SUV and the SUV at 1.25 h ([3]; spleen, co-injected DV1-k-(DV3) 24 nmol, n = 4, read-out: spleen uptake) was 0.4 ± 0.1 SUV. The SUV at 1.25 h ([3]; spleen, tracer alone (0 nmol), n = 4, read-out: spleen uptake) was 2.5 ± 1 SUV, the tissue to tissue ratio at 1.25 h ([3]; tumor / blood, tracer alone (0 nmol), n = 4, read-out: tumor-to-blood ratio (t/blood)) was 4.6 ± 0.9 and the tissue to tissue ratio at 1.25 h ([3]; tumor / liver, tracer alone (0 nmol), n = 4, read-out: tumor-to-liver ratio (t/liver)) was 0.1 ± 0.02. For the same compound, the tissue to tissue ratio at 1.25 h ([3]; tumor / liver, with unlabelled DV1-k-(DV3) 24 nmol, co-injected, co-injected DV1-k-(DV3) 24 nmol, n = 4, read-out: tumor-to-liver ratio (t/liver)) was 0.9 ± 0.2.
